According to ChEMBL document CHEMBL1145750, “Synthesis and biological evaluation of 2'-methyl taxoids derived from baccatin III and 14beta-OH-baccatin III 1,14-carbonate” (J Med Chem, 2003):

Experiments:
[1] = Potency differential in resistant to that of sensitive A2780TAX cell line; type: functional
[2] = Potency differential in resistant to that of sensitive A2780ADR cell line; type: functional, A2780 ADR
A2780 [3] = assay: In vitro cytotoxicity against A2780TAX cell line; details: Homo sapiens
[4] = Potency differential in resistant to that of sensitive A2780CIS cell line; type: functional
A2780 [5] = assay: In vitro cytotoxicity against A2780 cell line; details: Homo sapiens
A2780 [6] = assay: In vitro cytotoxicity against A2780ADR cell line; details: Homo sapiens
A2780 [7] = assay: In vitro cytotoxicity against A2780CIS cell line; details: Homo sapiens
MCF7 = assay: In vitro cytotoxicity against MCF-7 cell line; type: functional, cell-based; details: Homo sapiens
MCF7R [8] = assay: In vitro cytotoxicity against MCF7-R cell line; type: functional, cell-based; details: Homo sapiens
MCF7R [9] = assay: (§1) Potency differential in resistant to that of sensitive MCF7-R cell line; type: functional, cell-based; details: Homo sapiens
[10] = as §1; type: functional

Compound `CC(=O)O[C@H]1C(=O)[C@@]2(C)[C@H]([C@H](OC(=O)c3ccccc3)[C@]34OC(=O)O[C@H]3[C@H](OC(=O)[C@](C)(O)[C@@H](NC(=O)OC(C)(C)C)C(F)(F)F)C(C)=C1C4(C)C)[C@]1(OC(C)=O)CO[C@@H]1C[C@@H]2O` has a Ratio [1] of 61, a Ratio [2] of 17 and an IC50 (A2780 [3]) of 285 nM. For the same compound, the Ratio [4] was 0.6, the IC50 (A2780 [5]) was 4.6 nM and the IC50 (A2780 [6]) was 79.3 nM. It also gave an IC50 (A2780 [7]) of 2.8 nM.

For `CC(=O)O[C@H]1C(=O)[C@@]2(C)[C@H]([C@H](OC(=O)c3ccccc3)[C@]34OC(=O)O[C@H]3[C@H](OC(=O)[C@](C)(O)[C@@H](NC(=O)OC(C)(C)C)c3ccccc3)C(C)=C1C4(C)C)[C@]1(OC(C)=O)CO[C@@H]1C[C@@H]2O`, the Ratio [1] was 118, the Ratio [2] was 21 and the IC50 (A2780 [3]) was 299 nM. The Ratio [4] was 0.7, the IC50 (A2780 [5]) was 2.5 nM and the IC50 (A2780 [6]) was 52.9 nM. For the same compound, the IC50 (A2780 [7]) was 1.7 nM.

Work on `CC(=O)O[C@H]1C(=O)[C@@]2(C)[C@H]([C@H](OC(=O)c3ccccc3)[C@]34OC(=O)O[C@H]3[C@H](OC(=O)[C@H](O)[C@H](CC(C)C)NC(=O)OC(C)(C)C)C(C)=C1C4(C)C)[C@]1(OC(C)=O)CO[C@@H]1C[C@@H]2O` [ORTATAXEL] yielded a Ratio [1] of 12, an IC50 (MCF7) of 1.1 nM and an IC50 (MCF7R [8]) of 36 nM. The Ratio [2] was 13, the Ratio (MCF7R [9]) was 33 and the IC50 (A2780 [3]) was 56 nM. For the same compound, the Ratio [4] was 0.7, the IC50 (A2780 [5]) was 4.8 nM and the IC50 (A2780 [6]) was 63 nM. The IC50 (A2780 [7]) was 3.6 nM.

With `CC(=O)O[C@H]1C(=O)[C@@]2(C)[C@H]([C@H](OC(=O)c3ccccc3)[C@]3(O)C[C@H](OC(=O)[C@](C)(O)[C@@H](NC(=O)OC(C)(C)C)c4ccco4)C(C)=C1C3(C)C)[C@]1(OC(C)=O)CO[C@@H]1C[C@@H]2O` the Ratio [1] was 107, the Ratio [2] was 14 and the IC50 (A2780 [3]) was 312 nM. It also gave a Ratio [4] of 1.1, an IC50 (A2780 [5]) of 2.9 nM and an IC50 (A2780 [6]) of 41.3 nM. The IC50 (A2780 [7]) was 3.3 nM.

With `CC(=O)O[C@H]1C(=O)[C@@]2(C)[C@H]([C@H](OC(=O)c3ccccc3)[C@]3(O)C[C@H](OC(=O)[C@](C)(O)[C@@H](NC(=O)c4ccccc4)c4ccco4)C(C)=C1C3(C)C)[C@]1(OC(C)=O)CO[C@@H]1C[C@@H]2O` the Ratio [1] was 135, the Ratio [2] was 20 and the IC50 (A2780 [3]) was 420 nM. The Ratio [4] was 0.9, the IC50 (A2780 [5]) was 3.1 nM and the IC50 (A2780 [6]) was 61.4 nM. It also gave an IC50 (A2780 [7]) of 2.9 nM.

Work on `CC(=O)O[C@H]1C(=O)[C@@]2(C)[C@H]([C@H](OC(=O)c3ccccc3)[C@]34OC(=O)O[C@H]3[C@H](OC(=O)[C@](C)(O)[C@@H](NC(=O)OC(C)(C)C)c3ccco3)C(C)=C1C4(C)C)[C@]1(OC(C)=O)CO[C@@H]1C[C@@H]2O` yielded a Ratio [1] of 5, an IC50 (MCF7) of 1.7 nM and an IC50 (MCF7R [8]) of 16 nM. It also gave a Ratio [2] of 4, a Ratio [10] of 9.4 and an IC50 (A2780 [3]) of 30.9 nM. It also gave a Ratio [4] of 0.4, an IC50 (A2780 [5]) of 5.9 nM and an IC50 (A2780 [6]) of 27.1 nM. The IC50 (A2780 [7]) was 2.5 nM.
